Measured values: patent US20260077055A1, “COMPOSITIONS OF POLYPLEXES AND SAPONINS” (SAPREME TECHNOLOGIES B.V., priority 2022, published 2026)

System: EGFR+ A431 cells
Assay: Cell viability (MTS) after polyplex transfection of A431 cells
Type: cell-based
Procedure: Spectrophotometry: Concentrations were determined using either a Thermo Nanodrop 2000 spectrometer or Perkin Elmer Lambda 365 Spectrophotometer. DLS measurements: DLS measurements were performed on a Malvern Nano ZS (Malvern Instruments, U.K.), operating at 633 nm with a 173° scattering angle, at 25 or 37° C. DLS mean diameters were obtained from the intensity particle size distribution provided by Malvern Zetasizer Software. DLS histograms were obtained from the intensity particle size distributions. Zeta-potential: The zeta-potential values of the polyplexes were obtained by laser doppler anemometry (LDA), measuring the mean electrophoretic mobility (Malvern Zetasizer Nano ZS, Malvern Instruments, U.K.). Measurements were performed in 10 mM HEPES pH 7.1, 150 mM NaCl. TEM measurements: TEM measurements were performed on a JEOL JEM-1011 operated at 100 kV electron microscope, equipped with a camera S5 MegaView G2. A drop of a solution of polyplexes (0.1 mg/mL) was settled on a PELCO® TEM carbon type-B film copper grid and allowed to dry at room temperature for 1 h. Infrared Spectroscopy: FT-IR spectra were recorded on a Bruker Vertex 70v, equipped with a RockSolid interferometer, after preparing the samples (1-2 mg) as KBr pellets. Spectra were processed using OPUS 7.8 software (Bruker). NMR Spectroscopy: 1H NMR spectra were recorded on a 11.7 T Bruker DRX-500 spectrometer. Chemical shifts are reported in ppm (o units) downfield from the HOD residual solvent peak (CD3OD). Experiments were recorded acquiring 64-512 scans, with a pre-scan delay (d1) of 12 s, and an acquisition time (aq) of 4 s at 300 K. 13C NMR spectrum was recorder on a 9.39 T Varian Innova 400 spectrometer. MestReNova 14.2 software (Mestrelab Research) was used for spectra processing. Cell culture conditions and treatments: HEK293FT, A431, A2058, Neuro2A, Hepa1-6 and MDA-MB 468 were maintained in 10% FBS-supplemented DMEM medium (PAN-Biotech GmbH, or Lonza Group, Basel, Switzerland)+Pen/Strep at 37° C. with 5% CO2. […] SO1861-EMCH was conjugated into/onto these polyplexes or co-administrated at 966 or 4000 nM to the different cell lines in vitro (as indicated). For this, cells were seeded in a 96 well plate at 5.000-10.000 c/w in 100 μL/well and incubated overnight at 37° C. Before treatment, the mAb-SO1861 and polyplexes were diluted separately in DPBS (PAN-Biotech GmbH) to 10× the required final concentration. The cells received 80 μL/well fresh media, followed by 20 μL/well polyplex solution and 20 μL/well saponin solution. In particular, before K16-polyplex treatments, K16-polyplexes were formulated in 10 mM HEPES, incubated for 30 min at room temperature and then diluted with complete cell culture medium. The complete cell culture medium was exchanged against 100 μL transfection medium. For co-administration of SO1861-EMCH, the transfection medium was supplemented with 2 μg/mL (=966 nM) SO1861-EMCH. Control transfections were performed with Lipofectamine™ 3000 Transfection Reagent (Thermo Fisher Scientific) according to the manufacturer's instruction, using either […] or 100 ng plasmid and with a media change 4-5 hrs after transfection. […] After treatment, the cells were incubated for 72 hr at 37° C. before the cell viability was determined by a MTS-assay performed according to the manufacturer's instruction (CellTiter 96® AQueous One Solution Cell Proliferation Assay, Promega). […]

CC(=O)OC1C(C)OC(OC2C(C)OC(OC(=O)[C@]34CCC(C)(C)CC3C3=CCC5[C@@]6(C)CC[C@H](OC7OC(C(=O)O)C(O)C(OC8OCC(O)C(O)C8O)C7OC7OC(CO)C(O)C(O)C7O)[C@@](C)(/C=N/NC(=O)CCCCCN7C(=O)C=CC7=O)C6CC[C@@]5(C)[C@]3(C)C[C@H]4O)C(OC3OC(C)C(OC4OCC(O)C(OC5OC(CO)C(O)C(O)C5O)C4O)C(O)C3O)C2O)C(O)C1OC1OCC(O)C(O)C1O (some centres unmarked) [SO1861-EMCH]
cell killing activity / saporin gene delivery, K16C npSaporin polyplexes (K16C alone up to about 5000 μM of plasmids (printed), SO1861-EMCH = free, co-administered with K16C-polyplexes): enhanced cell killing activity | cytoplasmic delivery of npSaporin / cell killing (co-administered with PAMAM G5(PEG-N3)6.2 npSaporin polyplexes, 73 nM Cetuximab-SO1861 or 4 μM SO1861-EMCH, 72 h): strongly enhanced the cytoplasmic delivery of npSaporin
